Relative potency and IC50 data for eleven compounds are collected here from ChEMBL document CHEMBL1136445, “Inhibitory effects on mitochondrial complex I of semisynthetic mono-tetrahydrofuran acetogenin derivatives” (Bioorg Med Chem Lett, 2003).

As usually defined, the IC50 is the concentration that inhibits the measured activity by half.

The target of assay [1] is Mitochondrial complex I; NADH oxidoreductase (Bos taurus) (UniProt P25708+P52505). As to the kind of experiment: Inhibitory potency against NADH oxidase with respect to compound 2c. It is filed as protein-complex assay.
Assay [2] is filed under the species Bos taurus. As to the kind of experiment: Inhibitory potency against NADH/DH oxidoreductase with respect to rotenone.
Assay [3] in a line: Inhibitory activity against NADH/DH oxidoreductase in beef heart mitochondrial complex I. Also noted: species or system Bos taurus.
Assay [4] addresses Mitochondrial complex I; NADH oxidoreductase (Bos taurus, UniProt P25708+P52505). Description: Inhibitory activity against NADH oxidase in beef heart mitochondrial complex I. Type of assay: protein-complex assay.

SMILES strings stand for the structures.

Mitochondrial complex I; NADH oxidoreductase, sequence (P25708 21-464 limits assumed, other chains not shown): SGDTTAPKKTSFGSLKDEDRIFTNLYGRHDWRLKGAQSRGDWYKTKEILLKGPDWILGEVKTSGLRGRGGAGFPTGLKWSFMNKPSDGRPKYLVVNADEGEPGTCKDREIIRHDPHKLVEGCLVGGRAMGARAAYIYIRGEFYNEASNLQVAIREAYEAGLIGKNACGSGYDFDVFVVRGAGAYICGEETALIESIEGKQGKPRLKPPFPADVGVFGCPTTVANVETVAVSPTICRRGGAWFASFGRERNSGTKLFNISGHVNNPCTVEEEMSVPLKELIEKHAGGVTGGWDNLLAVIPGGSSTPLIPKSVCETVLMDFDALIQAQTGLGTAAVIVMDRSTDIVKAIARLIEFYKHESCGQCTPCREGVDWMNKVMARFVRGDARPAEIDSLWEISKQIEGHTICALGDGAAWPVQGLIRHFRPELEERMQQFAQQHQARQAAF

Turning to `C=C(C)[C@H]1Cc2c(ccc3c2O[C@@H]2COc4cc(OC)c(OC)cc4[C@@H]2C3=O)O1` [ROTENONE], the figures for the Relative potency in assay [1] and in assay [2] were 7.2 and 1, respectively. In addition, the IC50 in assay [3] worked out at 28.8 nM; in assay [4] it was 5.1 nM.
For `CCCCCCCCCCCC[C@H](O)[C@@H]1CC[C@@H]([C@@H](O)CCCC[C@@H](O)CCCCC[C@@H]2CC(C/C(C)=N/O)C(=O)O2)O1` (some centres not stated) the same measures were 2.7, 0.37, 8.7 nM and 1.9 nM.
As for `CCCCCCCCCCCC[C@H](O)[C@@H]1CC[C@@H]([C@@H](O)CCCCC(CCCCC[C@@H](O)CC2=C[C@H](C)OC2=O)NCCc2ccc(OC)c(OCc3ccccc3)c2)O1` (some centres not stated), the IC50 is over 1200 nM in assay [3] and over 150 nM in assay [4].
For `CCCCCCCCCCCC[C@H](O)[C@@H]1CC[C@@H]([C@@H](O)CCCC[C@@H](O)CCCCC[C@@H](O)CC2=C[C@H](C)OC2=O)O1`, the results for the Relative potency in assay [1] and in assay [2] were 3.2 and 0.62, respectively. Also, the half-maximal inhibitory concentration (IC50) in assay [3] is 26.1 nM; in assay [4] it was 2.3 nM.
On to `CCCCCCCCCCCC[C@H](O)[C@@H]1CC[C@@H]([C@@H](O)CCCC[C@@H](O)CCCCC[C@@H]2CC(CC(C)=O)C(=O)O2)O1` (some centres not stated), for which the Relative potency is 4.7 in assay [1] and 0.64 in assay [2]. Moreover, the IC50 in assay [3] is 14.6 nM; in assay [4], 3.3 nM.
For the compound `CCCCCCCCCCCC[C@H](O)[C@@H]1CC[C@@H]([C@@H](O)CCCC[C@@H](O)CCCCC[C@@H](O)CC2C[C@H](C)OC2=O)O1` (some centres not stated), the Relative potency was 5.1 in assay [1] and 0.7 in assay [2]. The IC50 turned out to be 19.9 nM in assay [3] and 3.6 nM in assay [4].
With `CCCCCCCCCCCC[C@H](O)[C@@H]1CC[C@@H]([C@@H](O)CCCCC(=O)CCCCC[C@@H](O)CC2=C[C@H](C)OC2=O)O1`, the Relative potency amounted to 1.1 in assay [1] and 0.15 in assay [2]. For the same compound, the results for the IC50 in assay [3] and in assay [4] were 3.7 nM and 0.8 nM, respectively.
In the case of `CCCCCCCCCCCC[C@H](O)[C@@H]1CC[C@@H]([C@@H](O)CCCC/C(CCCCC[C@@H](O)CC2=C[C@H](C)OC2=O)=N\O)O1`, the values for the Relative potency in assay [1] and in assay [2] were 3.8 and 0.52, respectively. In addition, the IC50 in assay [3] turned out to be 10.3 nM; in assay [4], 2.7 nM.
For `CCCCCCCCCCCC[C@H](O)[C@@H]1CC[C@@H]([C@@H](O)CCCC[C@@H](O)CCCCC[C@@H]2CC(CC(C)O)C(=O)O2)O1` (some centres not stated) the same measures were 8.2, 1.1, 51 nM and 5.8 nM.
Regarding `CCCCCCCCCCCC[C@H](O)[C@@H]1CC[C@@H]([C@@H](O)CCCC[C@@H](O)CCCCC[C@@H](O)CC2(O)C(=O)O[C@@H](C)C2O)O1` (some centres not stated), the figures for the Relative potency in assay [1] and in assay [2] were 31.1 and 4.27, respectively. The half-maximal inhibitory concentration (IC50) in assay [3] came to 55.2 nM; in assay [4], 21.8 nM.
For `CCCCCCCCCCCC[C@H](O)[C@@H]1CC[C@@H]([C@@H](O)CCCCC(=O)CCCCC[C@@H]2CC(CC(C)=O)C(=O)O2)O1` (some centres not stated) the same measures were 1, 0.13, 1.1 nM and 0.7 nM.
